Results published in patent US4495189A, “Condensed pyrimidines” (priority 1975, dated 1985).
Where two headings read alike, the source gives them in different places.

Columns and labels:
[1] = system: PGE1; experiment: Vessel wall permeability inhibition, prostaglandin E1; type: in vivo
Excerpt: (§1) Thus, it is appropriate to test the effectiveness of a representative compound of the invention in the inflammation response caused by prostaglandin E1 and E2, particularly from the point of view of the vessel wall permeability, which plays an important role in the inflammation.

[2] = in vivo; details: mouse, po
[3] = system: PGE2; experiment: Oedema inhibition, inflammation caused by prostaglandin E2; type: in vivo
Excerpt: as §1

[4] = system: PGE2; experiment: Vessel wall permeability inhibition, prostaglandin E2; type: in vivo
Excerpt: as §1

[5] = system: PGE1; experiment: Oedema inhibition, inflammation caused by prostaglandin E1; type: in vivo
Excerpt: as §1

[6] = in vivo; details: rat, po
[7] = Antiphlogistic activity, method of Northove; type: in vivo; details: 100 mg/kg
Excerpt: Favorable antiphlogistic properties were found in tests carried out by the method of Northove.

[8] = system: rat paw oedema; experiment: Antiphlogistic activity, rat paw oedema method (Domenju); type: in vivo
Description: The antiphlogistic activity was tested by the rat paw oedema method (Domenju, R: Ann. Univ. Saraviensis 1,317, 1953). The compound were compared with the currently used therapeutic agents Phenylbutazone, aspirin, Indomethacin, Mebron and Amidazophenum.

[9] = system: mice; experiment: Analgesic activity on "Writing" test, on mice; type: in vivo; details: Mus musculus
Excerpt: (§2) Acute toxicity, analgesic and platelet aggregation inhibiting activity of "CH-105" was compared with the same activities of RIMAZOLIUM. RIMAZOLIUM is a commercial product, which is a quaternary salt chemically, but exerts its activity as a tautomeric enamine [Arzneimittel Forschung 21, 717-719 and 719-727 (1971)].

[10] = system: rats; experiment: Analgesic activity on rats, hot plate, per os; type: in vivo; details: Rattus norvegicus, po
Excerpt: as §2

[11] = system: collagen induced thrombocyte aggregation; experiment: Inhibition of collagen induced thrombocyte aggregation (in vitro); type: cell-based
Excerpt: In Table 6 the inhibition of collagen induced thrombocyte aggregation under in vitro conditions is shown.

[12] = system: rats; experiment: Chronic toxicity test, ulcerogenicity in rats; type: in vivo; details: one-month old rats, 50 mg/kg, chronic toxicity tests
[13] = Acute toxicity on rats (i.v.); details: rat, in vivo, iv
Excerpt: as §2

[14] = system: platelet aggregation; experiment: Platelet aggregation inhibiting activity, comparison of CH-105 and Rimazolium; details: same conditions for CH-105 and Rimazolium
Excerpt: as §2

[15] = Pharmacological and toxicological tests (summary)

SMILES: CC(=O)Oc1ccccc1C(=O)O [Aspirin]
- Vessel wall permeability inhibition %, PGE1 ([1]; 200 mg/kg): 30%
- Vessel wall permeability inhibition %, PGE1 ([1]; 500 mg/kg): 42%
- LD50 [2]: 1100 mg/kg
- Oedema inhibition %, PGE2 ([3]; 200 mg/kg): 20%
- Oedema inhibition %, PGE2 ([3]; 500 mg/kg): 54%
- Vessel wall permeability inhibition %, PGE2 ([4]; 200 mg/kg): 25%
- Vessel wall permeability inhibition %, PGE2 ([4]; 500 mg/kg): 50%
- Oedema inhibition %, PGE1 ([5]; 200 mg/kg): 41%
- Oedema inhibition %, PGE1 ([5]; 500 mg/kg): 45%
- LD50 [6]: 1600 mg/kg

SMILES: CC1CCC=C2N(C)C=C(C(N)=O)C(=O)N21 (centres unmarked) [CH-105, 1,6-dimethyl-3-carbamoyl-4-oxo-1,6,7,8-tetrahydro-4H-pyrido[1,2-a]pyrimidine]
- Antiphlogistic activity (%), 1 hour [7]: 40%
- Antiphlogistic activity (%), 2 hours [7]: 55%
- Antiphlogistic activity (%), 24 hours [7]: 30%
- ED50 (modified writhing test): 70 mg/kg
- Therapeutic Index (modified writhing test): 14
- Oedema inhibiting effect in %, 1 hour after the administration of the substance ([8]; 100 mg/kg): 25%
- Oedema inhibiting effect in %, 2 hours after the administration of the substance ([8]; 100 mg/kg): 34%
- Oedema inhibiting effect in %, 1 hour after the administration of the substance ([8]; 300 mg/kg): 45%
- Oedema inhibiting effect in %, 2 hours after the administration of the substance ([8]; 300 mg/kg): 52%
- Oedema inhibiting effect in %, 24 hours after the administration of the substance ([8]; 300 mg/kg): 8%
- ED50 [9]: 210 µmol/kg
- ED50 [10]: 410 µmol/kg
- Inhibition of collagen induced thrombocyte aggregation in % ([11]; 1 × 10^-3 mole): 100%
- Inhibition of collagen induced thrombocyte aggregation in % ([11]; 1 × 10^-4 mole): 90%
- ulcerogenicity [12]: not ulcerogenic
- Vessel wall permeability inhibition %, PGE1 ([1]; 200 mg/kg): 40%
- Vessel wall permeability inhibition %, PGE1 ([1]; 500 mg/kg): 40%
- LD50 [13]: 960 µmol/kg
- LD50 [2]: 975 mg/kg
- Oedema inhibition %, PGE2 ([3]; 200 mg/kg): 31%
- Oedema inhibition %, PGE2 ([3]; 500 mg/kg): 45%
- platelet aggregation inhibiting activity [14]: excellent platelet aggregation inhibiting activity
- Vessel wall permeability inhibition %, PGE2 ([4]; 200 mg/kg): 35%
- Vessel wall permeability inhibition %, PGE2 ([4]; 500 mg/kg): 50%
- antiphlogistic activity, analgesic activity and therapeutic index (in words) [15]: significant antiphlogistic activity, analgesic activity and have a favorable therapeutic index
- Oedema inhibition %, PGE1 ([5]; 200 mg/kg): 30%
- Oedema inhibition %, PGE1 ([5]; 500 mg/kg): 42%
- activity as an oedema inhibitor or a vessel wall permeability reducing agent ([5]; data of Table 2, PGE1 and PGE2, compared with aspirin): activity of the same range as the known active prostaglandinantagonist, aspirin
- LD50 [6]: 750 mg/kg

SMILES: CC1CCC=C2N(C)C=C(C(=O)NC(C)(C)C)C(=O)N21 (centres unmarked) [Example 5, 1,6-dimethyl-3-(N-tert-butyl-carbamoyl)-4-oxo-1,6,7,8-tetrahydro-4H-pyrido(1,2a)pyrimidine]
- Oedema inhibiting effect in %, 2 hours after the administration of the substance ([8]; 125 mg/kg): 50%
- Inhibition of collagen induced thrombocyte aggregation in % ([11]; 1 × 10^-3 mole): 99%
- Inhibition of collagen induced thrombocyte aggregation in % ([11]; 1 × 10^-4 mole): 85%

SMILES: CC1CCC=C2N(C)C=C(C(=O)Nc3ccccc3)C(=O)N21 (centres unmarked) [Example 6, 1,6-dimethyl-3-(N-phenylcarbamoyl)-4-oxo-1,6,7,8-tetrahydro-4H-pyrido(1,2a)pyrimidine]
- Oedema inhibiting effect in %, 2 hours after the administration of the substance ([8]; 500 mg/kg): 53%
- Inhibition of collagen induced thrombocyte aggregation in % ([11]; 1 × 10^-3 mole): 56%
- Inhibition of collagen induced thrombocyte aggregation in % ([11]; 1 × 10^-4 mole): 29%

SMILES: CNC(=O)C1=CN(C)C2=CCCC(C)N2C1=O (centres unmarked) [Example 7, 1,6-dimethyl-3-(N-methyl-carbamoyl)-4-oxo-1,6,7,8-tetrahydro-4H-pyrido(1,2a)pyrimidine]
- Oedema inhibiting effect in %, 2 hours after the administration of the substance ([8]; 500 mg/kg): 60%
- Inhibition of collagen induced thrombocyte aggregation in % ([11]; 1 × 10^-3 mole): 100%
- Inhibition of collagen induced thrombocyte aggregation in % ([11]; 1 × 10^-4 mole): 95%

SMILES: CC1CCC=C2N(C)C=C(C(=O)NCCC(c3ccccc3)c3ccccc3)C(=O)N21 (centres unmarked) [Example 9, 1,6-dimethyl-3-[N-(3,3-diphenyl-propyl)-carbamoyl]-4-oxo-1,6,7,8-tetrahydro-4H-pyrido(1,2a)pyrimidine]
- Inhibition of collagen induced thrombocyte aggregation in % ([11]; 1 × 10^-3 mole): 70%
- Inhibition of collagen induced thrombocyte aggregation in % ([11]; 1 × 10^-4 mole): 60%

SMILES: CC1CCC=C2N(C)C=C(C(=O)NCCc3ccccc3)C(=O)N21 (centres unmarked) [Example 11, 1,6-dimethyl-3-[N-(2-phenyl-ethyl)-carbamoyl]-4-oxo-1,6,7,8-tetrahydro-4H-pyrido(1,2a)pyrimidine]
- Oedema inhibiting effect in %, 2 hours after the administration of the substance ([8]; 125 mg/kg): 38%
- Inhibition of collagen induced thrombocyte aggregation in % ([11]; 1 × 10^-3 mole): 96%
- Inhibition of collagen induced thrombocyte aggregation in % ([11]; 1 × 10^-4 mole): 92%

SMILES: COc1ccc2c(c1)c(CC(=O)O)c(C)n2C(=O)c1ccc(Cl)cc1 [Indomethacin]
- ED50 (modified writhing test): 2.4 mg/kg
- Therapeutic Index (modified writhing test): 12

SMILES: COc1cc(C)nc(-n2nc(C)cc2OC)n1 [Mebron]
- Antiphlogistic activity (%), 1 hour [7]: 23%
- Antiphlogistic activity (%), 2 hours [7]: 23%
- Antiphlogistic activity (%), 24 hours [7]: 0%
- Therapeutic Index (in vivo): 4.3
- ED50 (modified writhing test): 380 mg/kg
- Oedema inhibiting effect in %, 1 hour after the administration of the substance ([8]; 100 mg/kg): 8%
- Oedema inhibiting effect in %, 2 hours after the administration of the substance ([8]; 100 mg/kg): 22%
- Oedema inhibiting effect in %, 1 hour after the administration of the substance ([8]; 300 mg/kg): 25%
- Oedema inhibiting effect in %, 2 hours after the administration of the substance ([8]; 300 mg/kg): 25%
- Oedema inhibiting effect in %, 24 hours after the administration of the substance ([8]; 300 mg/kg): 3%

SMILES: CCCCC1C(=O)N(c2ccccc2)N(c2ccccc2)C1=O [Phenylbutazone]
- Antiphlogistic activity (%), 1 hour [7]: 13%
- Antiphlogistic activity (%), 2 hours [7]: 20%
- Antiphlogistic activity (%), 24 hours [7]: 0%
- ED50 (modified writhing test): 63 mg/kg
- Oedema inhibiting effect in %, 1 hour after the administration of the substance ([8]; 100 mg/kg): 2%
- Oedema inhibiting effect in %, 2 hours after the administration of the substance ([8]; 100 mg/kg): 2%
- Oedema inhibiting effect in %, 1 hour after the administration of the substance ([8]; 200 mg/kg): 11%
- Oedema inhibiting effect in %, 2 hours after the administration of the substance ([8]; 200 mg/kg): 10%
- Oedema inhibiting effect in %, 24 hours after the administration of the substance ([8]; 200 mg/kg): 3%
- Vessel wall permeability inhibition %, PGE1 ([1]; 100 mg/kg): 10%
- Vessel wall permeability inhibition %, PGE1 ([1]; 200 mg/kg): 20%
- Oedema inhibition %, PGE2 ([3]; 100 mg/kg): 10%
- Oedema inhibition %, PGE2 ([3]; 200 mg/kg): 28%
- Vessel wall permeability inhibition %, PGE2 ([4]; 100 mg/kg): 5%
- Vessel wall permeability inhibition %, PGE2 ([4]; 200 mg/kg): 20%
- Oedema inhibition %, PGE1 ([5]; 100 mg/kg): 35%
- Oedema inhibition %, PGE1 ([5]; 200 mg/kg): 15%

SMILES: CCOC(=O)c1c[n+](C)c2n(c1=O)C(C)CCC2 (centres unmarked) [Rimazolium, 1,6-dimethyl-3-carbethoxy-4-oxo-6,7,8,9-tetrahydrohomopyrimidazol-methylsulfate]
- ED50 [9]: 1050 µmol/kg
- ED50 [10]: 620 µmol/kg
- LD50 [13]: 610 µmol/kg
- platelet aggregation inhibiting activity [14]: practically ineffective
